Measurements reported in US9890176B2, “Mannose derivatives for treating bacterial infections” (Vertex Pharmaceuticals Incorporated, priority 2013, dated 2018).

System: bacterial strain LF82 binding to the glycoprotein BSA-(Mannose)3
Assay: Bacterial Binding Assay (BBA)
Type: cell-based, Escherichia coli
Conditions: read-out: Bacterial Binding Assay IC50
From the text: The purpose of the Bacterial Binding Assay (BBA) is to determine the inhibition activity of selective FimH antagonists on the bacterial strain LF82 binding to the glycoprotein BSA-(Mannose)3.
Below is a list of the Materials used to run the BBA are described below. • 1. LB broth: Supplier: Gibco, #10855 • 2. D-PBS: Supplier: Wisent, #311-425-CL • 3. LB agar plates • 4. 96-well black plate (high binding): Supplier: Costar, #3925 • 5. TopSeal™-A adhesive sealing films; Supplier PerkinElmer, #6005185 • 6. Carbonate-bicarbonate buffer pH 9.6 tablets, Supplier: Medicago, #09-8922-24 • 7. Water, Supplier: Gibco, #15230-162 • 8. Bovine serum albumin (BSA): Supplier: Sigma, #A-7888 • 9. (Man)-3-BSA (α1-3, α1-6 Mannotriose-BSA, 1 mg), V-Labs, #NGP1336, lot#HGDX37-169-1 • 10. Tween 20: Supplier: Sigma, #P9416 • 11. Bright-Glo Luciferase Assay System: Supplier: Promega, #E2610 • 12. LF82/Luciferase strain: Invasive ability of an Escherichia coli strain isolated from the ileal mucosa of a patient with Crohn's disease. Boudeau J, Glasser A L, Masseret E, Joly B, Darfeuille-Michaud A, Infect Immun. 1999, 67(9), 4499-509
Solutions and buffers used to run the BBA are described below. • 1. 0.04M carbonate-bicarbonate buffer (coating buffer) • 2. […] 1 mg of (Man)-3-BSA in 25 mL of water. • 3. 4000 ng/mL BSA • 4. 40 ng/mL BSA • 5. 1 μg/mL BSA-(Man)3: 150 μL of 40 ng/mL BSA-(Man)3+5.85 mL of 40 ng/mL BSA • 6. 0.5 μg/mL BSA-(Man)3 in 0.02M carbonate-bicarbonate buffer. • 7. 20 ng/mL BSA in 0.02M carbonate-bicarbonate buffer • 8. Blocking buffer (2% BSA/DPBS): 1 g of BSA in 50 mL D-PBS • 9. 2× binding buffer (0.2% BSA/D-PBS): 5 mL of blocking buffer+45 mL D-PBS. • 10. Washing buffer (D-PBS/0.01% Tween 20): 10 μL of Tween 20 in 100 mL D-PBS. • 11. 1× Bright-Glo Luciferase substrate:Dilute 1:1 the Bright-Glo Luciferase Assay System with D-PBS The experimental protocol to run the BBA is described below.
Overnight culture of LF82/Luciferase strain: Into two Falcon 50 mL tubes, add 20 mL of LB+20 μL of 50 mg/mL Kanamycin and inoculate with a loop from glycerol stock of the LF82/Luciferase strain. Incubate overnight at 37° C. with no shaking.
Glycoprotein coating of 96-well plates: Add 100 μL/well of 0.5-2 μg/mL BSA-(Man)3. 20 μg/mL BSA is used as the control background. Seal plate using an adhesive sealing film and incubate overnight at room temperature. Wash the 96-well plate three times with 150 μL/well of D-PBS, add 170 μL/well of blocking solution and incubate 45 min (minimum) at room temperature.
Preparation of bacterial suspension: Mix the two cultures tubes (40 mL) and perform a 1:10 dilution in LB (900 μl LB+100 μl culture. Measure optical density (OD) of the bacterial cultures. OD1 ˜5×10^8 cells/mL. Centrifuge LF82 culture for 20 min at 3500 rpm at room temperature. Re-suspend bacterial pellet in D-PBS and centrifuge again for 20 min at 3500 rpm. Re-suspend bacterial pellet in D-PBS to obtain a bacterial concentration of 2×10^9 bacteria/mL. Dilute 1/10 in D-PBS to obtain a final bacterial concentration of 2×10^8 bacteria/mL (=107 bacteria/50 μL). Perform 1/10 serial dilutions in LB of each bacterial suspension, plate 10 μL of dilutions on LB agar plates (final dilutions of 10^−7) and incubate overnight at 37° C. and count CFUs to determine the actual bacteria density in the assay.
Bacterial binding assay: Add 147 μL 2× binding buffer to compound plate (containing 3 μL of compound). After blocking step is performed (at least 45 min), wash plates three times with 200 μL/well of D-PBS. With a 100 μL multichannel manual pipettor, add 50 μL/well of compound diluted in 2× binding buffer. With a 100 μL multichannel manual pipettor, add 50 μL/well of bacterial suspension. Agitate at slow speed for 1 min and incubate 40-75 min at room temperature. Wash 5 times with 150 μL/well of washing buffer and then once with D-PBS. Add 100 μL/well of 1× Bright-Glo Luciferase substrate. […]

SMILES | IC50 [nM]
Cc1cc(-c2cccc(C(=O)N[C@@H](CO)C(=O)O)c2)ccc1O[C@H]1O[C@H](CO)[C@@H](O)[C@H](O)[C@]1(C)O [Compound 69] | 30 ± 12
CNC(=O)c1cccc(-c2ccc(O[C@H]3O[C@H](CO)[C@@H](O)[C@H](O)[C@]3(C)O)c(Cl)c2)c1 [Example 15, 3-[3-chloro-4-[(2R,3S,4S,5S,6R)-3,4,5-trihydroxy-6-(hydroxymethyl)-3-methyl-tetrahydropyran-2-yl]oxy-phenyl]-N-methyl-benzamide] | 13 ± 2
OC[C@H]1O[C@@]2(CCc3cc(O)ccc3O2)[C@@H](O)[C@@H](O)[C@@H]1O [Example 124, (2R,3′S,4′S,5′S,6′R)-6′-(hydroxymethyl)spiro[chromane-2,2′-tetrahydropyran]-3′,4′,5′,6-tetrol] | 650 ± 550
Cc1cc(-c2ccc(F)c(Cl)c2)ccc1O[C@H]1O[C@H](CO)[C@@H](O)[C@H](O)[C@]1(C)O [Compound 92] | 82 ± 15
O=[N+]([O-])c1cccc(-c2ccc3c(c2)CC[C@]2(O3)O[C@H](CO)[C@@H](O)[C@H](O)[C@@H]2O)c1 [Compound 34] | 79 ± 31
CNC(=O)c1cc(F)cc(-c2ccc(O[C@H]3O[C@H](CO)[C@@H](O)[C@H](O)[C@]3(C)O)c(Cl)c2)c1 [Compound 56] | 24 ± 0.5
CNC(=O)c1cc(F)cc(-c2ccc(O[C@H]3O[C@H](CO)[C@@H](O)[C@H](O)[C@]3(C)O)c(C)c2)c1 [Compound 73] | 16 ± 5
Cc1cc(-c2ccc(O[C@H]3O[C@H](CO)[C@@H](O)[C@H](O)[C@]3(C)O)c(C)c2)ccc1O [Compound 104] | 69 ± 23
Cc1cc(-c2cccc(C(=O)NC(CO)(CO)CO)c2)ccc1O[C@H]1O[C@H](CO)[C@@H](O)[C@H](O)[C@]1(C)O [Compound 60] | 16 ± 0.5
Cc1cc(-c2cncc(-c3ccc(O[C@H]4O[C@H](CO)[C@@H](O)[C@H](O)[C@]4(C)O)c(C)c3)c2)ccc1O[C@H]1O[C@H](CO)[C@@H](O)[C@H](O)[C@]1(C)O [Example 119, (2R,3S,4S,5S,6R)-6-(hydroxymethyl)-3-methyl-2-[2-methyl-4-[5-[3-methyl-4-[(2R,3S,4S,5S,6R)-3,4,5-trihydroxy-6-(hydroxymethyl)-3-methyl-tetrahydropyran-2-yl]oxy-phenyl]-3-pyridyl]phenoxy]tetrahydropyran-3,4,5-triol] | 0.6 ± 0.2
Cc1cc(-c2cccc(C(=O)N[C@@H](CO)[C@H](C)O)c2)ccc1O[C@H]1O[C@H](CO)[C@@H](O)[C@H](O)[C@]1(C)O [Compound 59] | 20 ± 4
COc1cc(-c2ccc(O[C@H]3O[C@H](CO)[C@@H](O)[C@H](O)[C@]3(C)O)c(OC)c2)ccc1O[C@H]1O[C@H](CO)[C@@H](O)[C@H](O)[C@]1(C)O [Example 109, (2R,3S,4S,5S,6R)-6-(hydroxymethyl)-2-[2-methoxy-4-[3-methoxy-4-[(2R,3S,4S,5S,6R)-3,4,5-trihydroxy-6-(hydroxymethyl)-3-methyl-tetrahydropyran-2-yl]oxy-phenyl]phenoxy]-3-methyl-tetrahydropyran-3,4,5-triol] | 8 ± 4
CNC(=O)c1cccc(-c2ccc(O[C@H]3O[C@H](CO)[C@@H](O)[C@H](O)[C@@]3(O)CN)c(C)c2)c1 [Compound 48] | 605 ± 215
CNC(=O)c1ccc(-c2ccc(Cl)c(O[C@H]3O[C@H](CO)[C@@H](O)[C@H](O)[C@]3(C)O)c2)cc1 [Compound 45] | 116 ± 34
C[C@@]1(O)[C@@H](Oc2ccc(-c3ccc(O[C@H]4O[C@H](CO)[C@@H](O)[C@H](O)[C@]4(C)O)c(C#N)c3)cc2C#N)O[C@H](CO)[C@@H](O)[C@@H]1O [Example 111, 5-[3-cyano-4-[(2R,3S,4S,5S,6R)-3,4,5-trihydroxy-6-(hydroxymethyl)-3-methyl-tetrahydropyran-2-yl]oxy-phenyl]-2-[(2R,3S,4S,5S,6R)-3,4,5-trihydroxy-6-(hydroxymethyl)-3-methyl-tetrahydropyran-2-yl]oxy-benzonitrile] | 6 ± 2
C[C@@]1(O)[C@@H](Oc2ccc3ccc(O[C@H]4O[C@H](CO)[C@@H](O)[C@H](O)[C@]4(C)O)cc3c2)O[C@H](CO)[C@@H](O)[C@@H]1O [Example 108, (2R,3S,4S,5S,6R)-6-(hydroxymethyl)-3-methyl-2-[[7-[(2R,3S,4S,5S,6R)-3,4,5-trihydroxy-6-(hydroxymethyl)-3-methyl-tetrahydropyran-2-yl]oxy-2-naphthyl]oxy]tetrahydropyran-3,4,5-triol] | 158 ± 61
COc1cc(Cl)c(Cl)cc1-c1ccc(O[C@H]2O[C@H](CO)[C@@H](O)[C@H](O)[C@]2(C)O)c(C)c1 [Compound 100] | 155 ± 25
C[C@@]1(O)[C@@H](OCc2ccccc2)O[C@H](CO)[C@@H](O)[C@@H]1O [Compound 37] | > 10000
CNC(=O)c1cccc(-c2ccc(O[C@H]3O[C@H](CO)[C@@H](O)[C@H](O)[C@@]3(O)CNC(C)=O)c(C)c2)c1 [Compound 52] | 48 ± 10
COc1cc(F)ccc1-c1ccc(O[C@H]2O[C@H](CO)[C@@H](O)[C@H](O)[C@]2(C)O)c(C)c1 [Compound 91] | 92 ± 27
C[C@@]1(O)[C@@H](Oc2ccc(-c3ccc(C(=O)NC4CC4)c(Cl)c3)cc2Cl)O[C@H](CO)[C@@H](O)[C@@H]1O [Compound 54] | 42 ± 7
Cc1cc(-c2cccc([N+](=O)[O-])c2)ccc1O[C@H]1O[C@H](CO)[C@@H](O)[C@H](O)[C@]1(C)O [Example 18, (2R,3S,4S,5S,6R)-6-(hydroxymethyl)-3-methyl-2-[2-methyl-4-(3-nitrophenyl)phenoxy]tetrahydropyran-3,4,5-triol] | 13 ± 3
Cc1cc(-c2ccc(O[C@H]3O[C@H](CO)[C@@H](O)[C@H](O)[C@]3(C)O)c(C)c2)ccc1F [Compound 87] | 87 ± 33
Cc1cc(-c2cccc(C(=O)N(CCO)C(CO)(CO)CO)c2)ccc1O[C@H]1O[C@H](CO)[C@@H](O)[C@H](O)[C@]1(C)O [Compound 71] | 8 ± 2
C[C@@]1(O)[C@@H](Oc2ccc(N3CCc4cc([N+](=O)[O-])ccc43)cc2Cl)O[C@H](CO)[C@@H](O)[C@@H]1O [Example 19, (2R,3S,4S,5S,6R)-2-(2-chloro-4-(5-nitroindolin-1-yl)phenoxy)-6-(hydroxymethyl)-3-methyltetrahydro-2H-pyran-3,4,5-triol] | 13 ± 6
CNC(=O)c1cccc(-c2ccc(O[C@H]3O[C@H](CO)[C@@H](O)[C@H](O)[C@@]3(O)CN=[N+]=[N-])c(C)c2)c1 [Compound 38] | 105 ± 5
Cc1ccc(-c2ccc(C)c(O[C@H]3O[C@H](CO)[C@@H](O)[C@H](O)[C@]3(C)O)c2)cc1O[C@H]1O[C@H](CO)[C@@H](O)[C@H](O)[C@]1(C)O [Example 113, (2R,3S,4S,5S,6R)-6-(hydroxymethyl)-3-methyl-2-[2-methyl-5-[4-methyl-3-[(2R,3S,4S,5S,6R)-3,4,5-trihydroxy-6-(hydroxymethyl)-3-methyl-tetrahydropyran-2-yl]oxy-phenyl]phenoxy]tetrahydropyran-3,4,5-triol] | 15 ± 11
Cc1cc(-c2cccc(C(=O)NC(C)(CO)CO)c2)ccc1O[C@H]1O[C@H](CO)[C@@H](O)[C@H](O)[C@]1(C)O [Compound 61] | 22 ± 6
